Measurements reported in patent US20120122765A1, “COMPOUNDS AND RELATED METHODS FOR MANIPULATING PARP-1-DEPENDENT CELL DEATH” (priority 2010, published 2012).
Positions count from the first letter of the chain named. Numbers in names are those of the source. Entries after “also recorded” stand apart in the source; their conditions may differ. Where no end group is shown, it is not given here.

Key:
[1] = system: PAR; test: PAR overlay assay of full length AIF and mutants; type: binding; details: for reduced PAR binding: radioactive signal normalized to WT-AIF; for binding to 32P-labeled automodified PARP-1 or purified 32P-labeled PAR / effect of hundred fold excess of salmon sperm DNA on PAR binding: overlay assay; for binding to 32P-labeled automodified PARP-1 or purified 32P-labeled PAR: 100 nM PAR; for effect of hundred fold excess of salmon sperm DNA on PAR binding: 32P-labeled PAR; for effect of salmon sperm DNA on PAR binding: salmon sperm DNA at 760 μM
Experimental: The following experiment was performed to confirm whether AIF in fact binds to PAR. Applicants performed 3 trials of an overlay assay on recombinant AIF with affinity-purified biotin-labeled PAR. Histone H3, which binds to PAR with high affinity, was included as a positive control and bovine serum albumin (“BSA”) was included as a negative control, as described by P. Chang et al. (Nat Cell Bio, 2005). FIG. 1B depicts three photos side by side for gels representative of all trials for these overlay assays. […] Thus, Applicants took the results of these two tests as confirming that AIF binds to PAR in vitro.
To further study these potential AIF PBMs, Applicants performed the following experiment to examine the effect of mutating AIFm amino acids 222-244, 441-463, and/or 567-592 to poly-alanine on the ability of AIF to bind PAR. FIG. 6 comprises black and white photographs of representative gels from an overlay assay of His-tagged WT-AIF, AIFm222-244, AIFm441-463, AIFm567-592, AIFΔ567-592 (i.e., a mutant lacking AAs 567-592), and AIF(K254A, R264A) (i.e., mutating K to A at 254 and R to A at 264) mutants with ^32P-labeled automodified PARP-1 (equivalent to 100 nM of PAR), purified ^32P-labeled PAR (100 nM), or purified ^32P-labeled PAR with either a 100-fold excess of DNA or cold PAR. […] The same can be assumed to corresponding sequences for other species, such as those identified in FIG. 4.
Additionally, to exclude the possibility that PAR polymer is binding to AIF through its DNA-binding domain, PAR polymer binding was assessed against the full length AIF DNA-binding mutant AIFK254A;R264A as described by H Cande et al. (Nat Struct Biol, 2002).
Finally, Human AIF (“AIFH”) is known to bind to DNA through a groove between the FAD-binding domain (“D1”) and C-terminal domain (“D3”). A mutant form of AIFH in which lysine 255 is substituted with alanine and arginine 265 is substituted with alanine (AIFK255A;R265A) completely lacks DNA binding. To investigate the possible contribution of the AIF DNA-binding domain to PAR binding, Applicants assessed PAR binding to AIFm mutated in the same way (AIFK254A;R264A). […] Thus, Applicants concluded that the AIF PAR-binding site is separable from its DNA-binding site, meaning that such binding could be inhibited by genetically modifying AIF without impacting the natural DNA binding capabilities of AIF or potentially by otherwise inhibiting the binding action of the PBMs.

[2] = system: PAR; test: nitrocellulose saturation binding experiments; details: PAR binding, saturation binding
Description: Applicants thereafter repeated the experiments using both wild type and mutant AIFm peptides spanning only amino acids 567-592 instead of full length AIFm and obtained results consistent with those using full-length AIF. […] The double amino acid mutant Dm (corresponding to only amino acids 567-592 of AIF-Dm so as to consist of SEQ. ID NO. 16) bound PAR. […] Thus, it is preferred in embodiments of the invention when conducting genetic manipulations to convert at least three target basic amino acids in the PBM to hydrophobic amino acids.
The PAR polymer binding properties of the mutant Pbm-AIF was then measured using full-length recombinant His-WT-AIF and His tagged Pbm-AIF (“His-Pbm-AIF”) via a series of nitrocellulose saturation binding experiments. Similar experiments were also conducted for the shorter peptides Dm and Tm in comparison to WT. FIG. 10B through FIG. 10D comprise charts reporting data from these various experiments. With regard to the shorter peptides, Applicants determined that the binding affinity constant (“Kd”) and maximum binding capacity (“Bmax”) of these AIF mimetic peptides and the results are reported in the chart of FIG. 10B. […] FIG. 10D comprises a Scatchard plot (95% confidence interval) of the results.

[3] = system: isolated mitochondria; test: AIF binding to isolated mitochondria
Experimental: One commonly accepted estimate is that approximately 20%-30% of AIF resides on the cytosolic side of the outer membrane of mitochondria, where it is poised to be rapidly released by PAR following PARP-1 activation. Applicants thus wanted to perform tests of AIF binding to mitochondria determine how readily purified WT-AIF and Pbm-AIF bind to mitochondria in a time- and concentration-dependent manner. Specifically, recombinant WT-AIF (2.5 ng/μl) and Pbm-AIF (2.5 ng/μl) were incubated with isolated mitochondria (200 μg/ml) for 1 minute, 5 minutes, 10 minutes, 15 minutes, 20 minutes or 30 minutes. […] The results of this portion of the experiment is provided by the graph of FIG. 15B.
To investigate the mechanism underlying mitochondrial AIF release following PARP-1 activation, Applicants incubated isolated mitochondria with purified non-tagged forms of AIF in the presence or absence of PAR and followed this by centrifugation to remove the mitochondria. Detection of AIF remaining in the supernatant was thereafter performed through immunoblot analysis.
The supernatant collected in the experiments of Example 16 were also analyzed for the presence of Tom20 and cyclochrome c.

AIFR588L;K592L: His-tagged mouse AIF double leucine mutant, SEQ. ID NO. 20 (LRDKVVVGIVLWNVFNRMPIALKIIL; also: His tag)
reduced PAR binding [1]: about 85%

AIFR588L;K589L: His-tagged mouse AIF double leucine mutant, SEQ. ID NO. 19 (LRDKVVVGIVLWNVFNRMPIALLIIK; also: His tag)
reduced PAR binding [1]: about 85%

AIFK589L;K592L: His-tagged mouse AIF double leucine mutant, SEQ. ID NO. 21 (LRDKVVVGIVLWNVFNRMPIARLIIL; also: His tag)
reduced PAR binding [1]: about 85%

triple leucine mutant: mouse AIF mutant R588L;K589L;K592L (LRDKVVVGIVLWNVFNRMPIALLIIL; mouse)
PAR binding ([1]; His-tagged proteins, purified PAR, normalized to WT-AIF, result in words): nearly abolished PAR-binding

peptide of amino acids 567-592 of mouse AIF, SEQ. ID NO. 10 LRDKVVVGIVLWNVFNRMPIARKIIK (mouse) [WT peptide]
Bmax [2]: 4.57 pmol | Bmax ([2]; listed as AIFm567-592 peptide): 4.55 pmol

Poly(ADP-ribose) [PAR, reference compound]
release of endogenous cytochrome c from mitochondria ([3]; 5 nM and 50 nM PAR): failed to induce the release of endogenous cytochrome c | release of endogenous cytochrome c from mitochondria ([3]; 100 nM PAR): a weak cytochrome c signal could be detected | Tom20 in the supernatant (mitochondrial integrity) ([3]; any concentration of PAR used): could not be detected in the supernatant

B1: AIF-Sm: full length mouse AIF, arginine at 588 substituted with alanine (protein, UniProt Q9Z0X1 1-612, looked up, variant R588A)
chain: MFRCGGLAGAFKQKLVPLVRTVYVQRPKQRNRLPGNLFQQWRVPLELQMARQMASSGSSGGKMDNSVLVLIVGLSTIGAGAYAYKTIKEDQKRYNERVMGLGLSPEEKQRRAIASATEGGSVPQIRAPSHVPFLLIGGGTAAFAAARSIRARDPGARVLIVSEDPELPYMRPPLSKELWFSDDPNVTKTLQFRQWNGKERSIYFQPPSFYVSAQDLPNIENGGVAVLTGKKVVHLDVRGNMVKLNDGSQITFEKCLIATGGTPRSLSAIDRAGAEVKSRTTLFRKIGDFRALEKISREVKSITVIGGGFLGSELACALGRKSQASGIEVIQLFPEKGNMGKILPQYLSNWTMEKVKREGVKVMPNAIVQSVGVSGGRLLIKLKDGRKVETDHIVTAVGLEPNVELAKTGGLEIDSDFGGFRVNAELQARSNIWVAGDAACFYDIKLGRRRVEHHDHAVVSGRLAGENMTGAAKPYWHQSMFWSDLGPDVGYEAIGLVDSSLPTVGVFAKATAQDNPKSATEQSGTGIRSESETESEASEITIPPSAPAVPQVPVEGEDYGKGVIFYLRDKVVVGIVLWNVFNRMPIAAKIIKDGEQHEDLNEVAKLFNIHED
modifications: full-length
notes: full length mouse AIF, arginine at 588 substituted with alanine
reduced PAR binding [1]: 40%

B2: AIF-Dm: full length mouse AIF, arginine 588 and lysine 589 substituted with alanines (protein, UniProt Q9Z0X1 1-612, looked up, variant R588A K589A)
chain: B1 chain with K589A
modifications: full-length
notes: full length mouse AIF, arginine 588 and lysine 589 substituted with alanines
reduced PAR binding [1]: 80%

B3: AIF-Qm: full length mouse AIF, arginine 588, lysine 589, lysine 592 and arginine 583 substituted with alanines (protein, UniProt Q9Z0X1 1-612, looked up, variant R583A R588A K589A K592A)
chain: B1 chain with R583A, K589A, K592A
modifications: full-length
notes: full length mouse AIF, arginine 588, lysine 589, lysine 592 and arginine 583 substituted with alanines
reduced PAR binding [1]: 90%

B4: AIFm441-463: His-tagged mouse AIF with amino acids 441 to 463 mutated to poly-alanine (protein)
chain: MFRCGGLAGAFKQKLVPLVRTVYVQRPKQRNRLPGNLFQQWRVPLELQMARQMASSGSSGGKMDNSVLVLIVGLSTIGAGAYAYKTIKEDQKRYNERVMGLGLSPEEKQRRAIASATEGGSVPQIRAPSHVPFLLIGGGTAAFAAARSIRARDPGARVLIVSEDPELPYMRPPLSKELWFSDDPNVTKTLQFRQWNGKERSIYFQPPSFYVSAQDLPNIENGGVAVLTGKKVVHLDVRGNMVKLNDGSQITFEKCLIATGGTPRSLSAIDRAGAEVKSRTTLFRKIGDFRALEKISREVKSITVIGGGFLGSELACALGRKSQASGIEVIQLFPEKGNMGKILPQYLSNWTMEKVKREGVKVMPNAIVQSVGVSGGRLLIKLKDGRKVETDHIVTAVGLEPNVELAKTGGLEIDSDFGGFRVNAELQARSNIWVAGDAACAAAAAAAAAAAAAAAAAAAAAAAAGENMTGAAKPYWHQSMFWSDLGPDVGYEAIGLVDSSLPTVGVFAKATAQDNPKSATEQSGTGIRSESETESEASEITIPPSAPAVPQVPVEGEDYGKGVIFYLRDKVVVGIVLWNVFNRMPIARKIIKDGEQHEDLNEVAKLFNIHED
modifications: left off: small tags and cut ends
notes: His-tagged mouse AIF with amino acids 441 to 463 mutated to poly-alanine
binding to 32P-labeled automodified PARP-1 or purified 32P-labeled PAR ([1]; His-tagged proteins): comparable binding to that of unmutated WT-AIFm | effect of hundred fold excess of salmon sperm DNA on PAR binding [1]: fails to disrupt | effect of salmon sperm DNA on PAR binding [1]: failed to disrupt PAR binding

B5: AIFK254A;R264A: full length mouse AIF DNA-binding mutant, K to A at 254 and R to A at 264 (protein)
chain: B1 chain with K254A, R264A, A588R
modifications: left off: small tags and cut ends
binding to 32P-labeled automodified PARP-1 or purified 32P-labeled PAR ([1]; His-tagged proteins): still substantially binds; also recorded: bound to ^32P-labeled automodified PARP-1 and purified ^32P-labeled PAR | effect of hundred fold excess of salmon sperm DNA on PAR binding [1]: fails to disrupt | effect of salmon sperm DNA on PAR binding [1]: failed to disrupt PAR binding
